Source: patent US20230392217A1 (priority 2020, published 2023)
Where two headings read alike, the source gives them in different places.

Key:
[1] = test system: methicillin-sensitive S. aureus (MSSA); details: cited from earlier work
[2] = test system: methicillin-resistant S. aureus (MRSA); details: cited from earlier work
[3] = test system: SosA protein of Staphylococcus aureus; assay: SosA expression of Staphylococcus aureus according to concentration of ciprofloxacin, detected using SosA antibodies; format: cell-based; details: detected using the SosA antibody, FIG. 10
Description: Pellets of microorganisms were suspended with 1 ml of DPBS containing sosA-specific antibodies that were diluted at 1:2,000 and cultured overnight at 37° C., 180 rpm. Thereafter, centrifugation was performed at 13,000 rpm for 1 minute, secondary antibodies (anti-mouse FITC, Abcam) diluted at 1:500 were treated, and culture was performed at 37° C., 180 rpm for 3 hours. 100 ul of a sample was transferred to a 12-well plate containing an 18 mm cover glass and centrifuged at 1,100 rpm for 1 minute, and the bacteria were attached to a cover glass. The plates were washed three times with DPBS, and centrifugation was performed at 1,100 rpm for 1 minute. The cover glass was attached to the slide, and then imaging was performed using the Zeiss LSM 5 live confocal microscope. Images were acquired using Plan-Apochromat 63×1.4 NA objectives, and analysis was performed to detect GFP fluorescence by setting to 488 nm for excitation wavelength and 513±12 nm for emission wavelength.
In addition, each sample was transferred to a 96-well plate, and absorbance measurement and fluorescence analysis were performed using Ensight (PerkinElmer). In the case of green fluorescence, the excitation wavelength was at 488 nm and the emission wavelength was at 528 nm, and in the case of red fluorescence, the excitation wavelength was at 558 nm and the emission wavelength was at 615 nm. […]

For `COc1cccc(OC)c1C(=O)N[C@@H]1C(=O)N2[C@@H]1SC(C)(C)[C@@H]2C(=O)O` [Methicillin, methicillin], the antibiotic susceptibility/resistance ([1]; strain MSSA #1) is given as “Susceptible”, the antibiotic susceptibility/resistance ([1]; strain MSSA #2) is given as “Susceptible” and the antibiotic susceptibility/resistance ([1]; strain MSSA #3) is given as “Susceptible”. For the same compound, the antibiotic susceptibility/resistance ([1]; strain MSSA #4) was “Susceptible”, the antibiotic susceptibility/resistance ([1]; strain MSSA #5) was “Susceptible” and the antibiotic susceptibility/resistance ([1]; strain MSSA #6) was “Susceptible”. The antibiotic susceptibility/resistance ([1]; strain MSSA #7) was “Susceptible”, the antibiotic susceptibility/resistance ([1]; strain MSSA #8) was “Susceptible” and the antibiotic susceptibility/resistance ([1]; strain MSSA #9) was “Susceptible”. The antibiotic susceptibility/resistance ([1]; strain MSSA #10) was “Susceptible”, the antibiotic susceptibility/resistance ([1]; strain MSSA #11) was “Susceptible” and the antibiotic susceptibility/resistance ([1]; strain MSSA #12) was “Susceptible”. The antibiotic susceptibility/resistance ([1]; strain MSSA #13) was “Susceptible”, the antibiotic susceptibility/resistance ([1]; strain MSSA #14) was “Susceptible” and the antibiotic susceptibility/resistance ([1]; strain MSSA #15) was “Susceptible”. For the same compound, the antibiotic susceptibility/resistance ([1]; strain MSSA #16) was “Susceptible”, the antibiotic susceptibility/resistance ([1]; strain MSSA #17) was “Susceptible” and the antibiotic susceptibility/resistance ([1]; strain MSSA #18) was “Susceptible”. For the same compound, the antibiotic susceptibility/resistance ([1]; strain MSSA #19) was “Susceptible”, the antibiotic susceptibility/resistance ([1]; strain MSSA #20) was “Susceptible” and the antibiotic susceptibility/resistance ([2]; strain MRSA #1) was “Resistant”. For the same compound, the antibiotic susceptibility/resistance ([2]; strain MRSA #2) was “Resistant”, the antibiotic susceptibility/resistance ([2]; strain MRSA #3) was “Resistant” and the antibiotic susceptibility/resistance ([2]; strain MRSA #4) was “Resistant”. The antibiotic susceptibility/resistance ([2]; strain MRSA #5) was “Resistant”, the antibiotic susceptibility/resistance ([2]; strain MRSA #6) was “Resistant” and the antibiotic susceptibility/resistance ([2]; strain MRSA #7) was “Resistant”. For the same compound, the antibiotic susceptibility/resistance ([2]; strain MRSA #8) was “Resistant”, the antibiotic susceptibility/resistance ([2]; strain MRSA #9) was “Resistant” and the antibiotic susceptibility/resistance ([2]; strain MRSA #10) was “Resistant”. The antibiotic susceptibility/resistance ([2]; strain MRSA #11) was “Resistant”, the antibiotic susceptibility/resistance ([2]; strain MRSA #12) was “Resistant” and the antibiotic susceptibility/resistance ([2]; strain MRSA #13) was “Resistant”. For the same compound, the antibiotic susceptibility/resistance ([2]; strain MRSA #14) was “Resistant”, the antibiotic susceptibility/resistance ([2]; strain MRSA #15) was “Resistant” and the antibiotic susceptibility/resistance ([2]; strain MRSA #16) was “Resistant”. The antibiotic susceptibility/resistance ([2]; strain MRSA #17) was “Resistant”, the antibiotic susceptibility/resistance ([2]; strain MRSA #18) was “Resistant” and the antibiotic susceptibility/resistance ([2]; strain MRSA #19) was “Resistant”. For the same compound, the antibiotic susceptibility/resistance ([2]; strain MRSA #20) was “Resistant”, the antibiotic susceptibility/resistance ([2]; strain MRSA #21) was “Resistant” and the antibiotic susceptibility/resistance ([2]; strain MRSA #22) was “Resistant”. For the same compound, the antibiotic susceptibility/resistance ([2]; strain MRSA #23) was “Resistant”, the antibiotic susceptibility/resistance ([2]; strain MRSA #24) was “Susceptible” and the antibiotic susceptibility/resistance ([2]; strain MRSA #25) was “Resistant”. For the same compound, the antibiotic susceptibility/resistance ([2]; strain MRSA #26) was “Resistant”, the antibiotic susceptibility/resistance ([2]; strain MRSA #27) was “Resistant” and the antibiotic susceptibility/resistance ([2]; strain MRSA #28) was “Resistant”. The antibiotic susceptibility/resistance ([2]; strain MRSA #29) was “Resistant” and the antibiotic susceptibility/resistance ([2]; strain MRSA #30) was “Resistant”.

In the case of `CN[C@H](CC(C)C)C(=O)N[C@H]1C(=O)N[C@@H](CC(N)=O)C(=O)N[C@H]2C(=O)N[C@H]3C(=O)N[C@H](C(=O)N[C@H](C(=O)O)c4cc(O)cc(O)c4-c4cc3ccc4O)[C@H](O)c3ccc(c(Cl)c3)Oc3cc2cc(c3O[C@@H]2O[C@H](CO)[C@@H](O)[C@H](O)[C@H]2O[C@H]2C[C@](C)(N)[C@H](O)[C@H](C)O2)Oc2ccc(cc2Cl)[C@H]1O` [Vancomycin, vancomycin], the antibiotic susceptibility/resistance ([1]; strain MSSA #1) is listed as “Susceptible”, the antibiotic susceptibility/resistance ([1]; strain MSSA #2) is listed as “Susceptible” and the antibiotic susceptibility/resistance ([1]; strain MSSA #3) is listed as “Susceptible”. The antibiotic susceptibility/resistance ([1]; strain MSSA #4) was “Susceptible”, the antibiotic susceptibility/resistance ([1]; strain MSSA #5) was “Susceptible” and the antibiotic susceptibility/resistance ([1]; strain MSSA #6) was “Susceptible”. For the same compound, the antibiotic susceptibility/resistance ([1]; strain MSSA #7) was “Susceptible”, the antibiotic susceptibility/resistance ([1]; strain MSSA #8) was “Susceptible” and the antibiotic susceptibility/resistance ([1]; strain MSSA #9) was “Susceptible”. For the same compound, the antibiotic susceptibility/resistance ([1]; strain MSSA #10) was “Susceptible”, the antibiotic susceptibility/resistance ([1]; strain MSSA #11) was “Susceptible” and the antibiotic susceptibility/resistance ([1]; strain MSSA #12) was “Susceptible”. For the same compound, the antibiotic susceptibility/resistance ([1]; strain MSSA #13) was “Susceptible”, the antibiotic susceptibility/resistance ([1]; strain MSSA #14) was “Susceptible” and the antibiotic susceptibility/resistance ([1]; strain MSSA #15) was “Susceptible”. For the same compound, the antibiotic susceptibility/resistance ([1]; strain MSSA #16) was “Susceptible”, the antibiotic susceptibility/resistance ([1]; strain MSSA #17) was “Susceptible” and the antibiotic susceptibility/resistance ([1]; strain MSSA #18) was “Susceptible”. The antibiotic susceptibility/resistance ([1]; strain MSSA #19) was “Susceptible”, the antibiotic susceptibility/resistance ([1]; strain MSSA #20) was “Susceptible” and the antibiotic susceptibility/resistance ([2]; strain MRSA #1) was “Susceptible”. For the same compound, the antibiotic susceptibility/resistance ([2]; strain MRSA #2) was “Susceptible”, the antibiotic susceptibility/resistance ([2]; strain MRSA #3) was “Susceptible” and the antibiotic susceptibility/resistance ([2]; strain MRSA #4) was “Susceptible”. The antibiotic susceptibility/resistance ([2]; strain MRSA #5) was “Susceptible”, the antibiotic susceptibility/resistance ([2]; strain MRSA #6) was “Susceptible” and the antibiotic susceptibility/resistance ([2]; strain MRSA #7) was “Susceptible”. The antibiotic susceptibility/resistance ([2]; strain MRSA #8) was “Susceptible”, the antibiotic susceptibility/resistance ([2]; strain MRSA #9) was “Susceptible” and the antibiotic susceptibility/resistance ([2]; strain MRSA #10) was “Susceptible”. For the same compound, the antibiotic susceptibility/resistance ([2]; strain MRSA #11) was “Susceptible”, the antibiotic susceptibility/resistance ([2]; strain MRSA #12) was “Susceptible” and the antibiotic susceptibility/resistance ([2]; strain MRSA #13) was “Susceptible”. For the same compound, the antibiotic susceptibility/resistance ([2]; strain MRSA #14) was “Susceptible”, the antibiotic susceptibility/resistance ([2]; strain MRSA #15) was “Susceptible” and the antibiotic susceptibility/resistance ([2]; strain MRSA #16) was “Susceptible”. For the same compound, the antibiotic susceptibility/resistance ([2]; strain MRSA #17) was “Susceptible”, the antibiotic susceptibility/resistance ([2]; strain MRSA #18) was “Susceptible” and the antibiotic susceptibility/resistance ([2]; strain MRSA #19) was “Susceptible”. For the same compound, the antibiotic susceptibility/resistance ([2]; strain MRSA #20) was “Resistant”, the antibiotic susceptibility/resistance ([2]; strain MRSA #21) was “Susceptible” and the antibiotic susceptibility/resistance ([2]; strain MRSA #22) was “Susceptible”. The antibiotic susceptibility/resistance ([2]; strain MRSA #23) was “Susceptible”, the antibiotic susceptibility/resistance ([2]; strain MRSA #24) was “Susceptible” and the antibiotic susceptibility/resistance ([2]; strain MRSA #25) was “Susceptible”. For the same compound, the antibiotic susceptibility/resistance ([2]; strain MRSA #26) was “Susceptible”, the antibiotic susceptibility/resistance ([2]; strain MRSA #27) was “Susceptible” and the antibiotic susceptibility/resistance ([2]; strain MRSA #28) was “Susceptible”. For the same compound, the antibiotic susceptibility/resistance ([2]; strain MRSA #29) was “Susceptible” and the antibiotic susceptibility/resistance ([2]; strain MRSA #30) was “Resistant”.

In the case of `O=C(O)c1cn(C2CC2)c2cc(N3CCNCC3)c(F)cc2c1=O` [Ciprofloxacin, ciprofloxacin], the “expression of SosA” value [3] is given as “increases with the increase in the administration concentration”, the antibiotic susceptibility/resistance ([1]; strain MSSA #1) is given as “Susceptible” and the antibiotic susceptibility/resistance ([1]; strain MSSA #2) is given as “Susceptible”. For the same compound, the antibiotic susceptibility/resistance ([1]; strain MSSA #3) was “Susceptible”, the antibiotic susceptibility/resistance ([1]; strain MSSA #4) was “Susceptible” and the antibiotic susceptibility/resistance ([1]; strain MSSA #5) was “Susceptible”. The antibiotic susceptibility/resistance ([1]; strain MSSA #6) was “Susceptible”, the antibiotic susceptibility/resistance ([1]; strain MSSA #7) was “Resistant” and the antibiotic susceptibility/resistance ([1]; strain MSSA #8) was “Resistant”. For the same compound, the antibiotic susceptibility/resistance ([1]; strain MSSA #9) was “Susceptible”, the antibiotic susceptibility/resistance ([1]; strain MSSA #10) was “Susceptible” and the antibiotic susceptibility/resistance ([1]; strain MSSA #11) was “Susceptible”. For the same compound, the antibiotic susceptibility/resistance ([1]; strain MSSA #12) was “Susceptible”, the antibiotic susceptibility/resistance ([1]; strain MSSA #13) was “Susceptible” and the antibiotic susceptibility/resistance ([1]; strain MSSA #14) was “Susceptible”. The antibiotic susceptibility/resistance ([1]; strain MSSA #15) was “Susceptible”, the antibiotic susceptibility/resistance ([1]; strain MSSA #16) was “Susceptible” and the antibiotic susceptibility/resistance ([1]; strain MSSA #17) was “Susceptible”. The antibiotic susceptibility/resistance ([1]; strain MSSA #18) was “Susceptible”, the antibiotic susceptibility/resistance ([1]; strain MSSA #19) was “Susceptible” and the antibiotic susceptibility/resistance ([1]; strain MSSA #20) was “Resistant”. For the same compound, the antibiotic susceptibility/resistance ([2]; strain MRSA #1) was “Resistant”, the antibiotic susceptibility/resistance ([2]; strain MRSA #2) was “Resistant” and the antibiotic susceptibility/resistance ([2]; strain MRSA #3) was “Susceptible”. The antibiotic susceptibility/resistance ([2]; strain MRSA #4) was “Susceptible”, the antibiotic susceptibility/resistance ([2]; strain MRSA #5) was “Resistant” and the antibiotic susceptibility/resistance ([2]; strain MRSA #6) was “Resistant”. The antibiotic susceptibility/resistance ([2]; strain MRSA #7) was “Resistant”, the antibiotic susceptibility/resistance ([2]; strain MRSA #8) was “Resistant” and the antibiotic susceptibility/resistance ([2]; strain MRSA #9) was “Resistant”. For the same compound, the antibiotic susceptibility/resistance ([2]; strain MRSA #10) was “Resistant”, the antibiotic susceptibility/resistance ([2]; strain MRSA #11) was “Resistant” and the antibiotic susceptibility/resistance ([2]; strain MRSA #12) was “Resistant”. For the same compound, the antibiotic susceptibility/resistance ([2]; strain MRSA #13) was “Resistant”, the antibiotic susceptibility/resistance ([2]; strain MRSA #14) was “Resistant” and the antibiotic susceptibility/resistance ([2]; strain MRSA #15) was “Resistant”. The antibiotic susceptibility/resistance ([2]; strain MRSA #16) was “Resistant”, the antibiotic susceptibility/resistance ([2]; strain MRSA #17) was “Resistant” and the antibiotic susceptibility/resistance ([2]; strain MRSA #18) was “Susceptible”. For the same compound, the antibiotic susceptibility/resistance ([2]; strain MRSA #19) was “Resistant”, the antibiotic susceptibility/resistance ([2]; strain MRSA #20) was “Resistant” and the antibiotic susceptibility/resistance ([2]; strain MRSA #21) was “Resistant”. The antibiotic susceptibility/resistance ([2]; strain MRSA #22) was “Resistant”, the antibiotic susceptibility/resistance ([2]; strain MRSA #23) was “Resistant” and the antibiotic susceptibility/resistance ([2]; strain MRSA #24) was “Susceptible”. For the same compound, the antibiotic susceptibility/resistance ([2]; strain MRSA #25) was “Resistant”, the antibiotic susceptibility/resistance ([2]; strain MRSA #26) was “Susceptible” and the antibiotic susceptibility/resistance ([2]; strain MRSA #27) was “Susceptible”. For the same compound, the antibiotic susceptibility/resistance ([2]; strain MRSA #28) was “Resistant”, the antibiotic susceptibility/resistance ([2]; strain MRSA #29) was “Resistant” and the antibiotic susceptibility/resistance ([2]; strain MRSA #30) was “Resistant”.
